The values that follow come from ChEMBL document CHEMBL5532736, “Novel Approaches for Upregulation of Tumor Suppressor Proteins: Pioneering Strategies and Integrative Potentials” (ACS Med Chem Lett, 2024).

The nature of test [1]: Cytotoxicity against human EU-1 cells assessed as inhibition of cell viability incubated for 24 to 72 hrs by CCK8 assay. It is filed as functional, cell-based.
Test [2] addresses E3 ubiquitin-protein ligase Mdm2 (Homo sapiens) (UniProt Q00987). Kind of test: Induction of MDM2 degradation in human EU-1 cells incubated for 6 hrs by Western blot analysis. Format: cell-based. The following applies: dose <= 2.0 µM.
Test [3] shares this target. Kind of test: Induction of MDM2 degradation in human EU-1 cells assessed as increase in p53 level incubated for 6 hrs by Western blot analysis. It is filed as cell-based. The settings on record: dose <= 2.0 µM.
For test [4] the target is unchanged. The experiment in a line: Induction of MDM2 degradation in human EU-1 cells at 0.8 uM by Western blot analysis. It is filed as cell-based. The settings on record: time <= 24.0 hrs, TDE = time-dependent effect.
Test [5] has the same target. Kind of test: Induction of MDM2 degradation in human EU-1 cells assessed as increase in p53 level at 0.8 uM by Western blot analysis. It is filed as cell-based. The following applies: time <= 24.0 hrs, TDE = time-dependent effect.

E3 ubiquitin-protein ligase Mdm2 (Homo sapiens), sequence (Q00987 whole entry, looked up): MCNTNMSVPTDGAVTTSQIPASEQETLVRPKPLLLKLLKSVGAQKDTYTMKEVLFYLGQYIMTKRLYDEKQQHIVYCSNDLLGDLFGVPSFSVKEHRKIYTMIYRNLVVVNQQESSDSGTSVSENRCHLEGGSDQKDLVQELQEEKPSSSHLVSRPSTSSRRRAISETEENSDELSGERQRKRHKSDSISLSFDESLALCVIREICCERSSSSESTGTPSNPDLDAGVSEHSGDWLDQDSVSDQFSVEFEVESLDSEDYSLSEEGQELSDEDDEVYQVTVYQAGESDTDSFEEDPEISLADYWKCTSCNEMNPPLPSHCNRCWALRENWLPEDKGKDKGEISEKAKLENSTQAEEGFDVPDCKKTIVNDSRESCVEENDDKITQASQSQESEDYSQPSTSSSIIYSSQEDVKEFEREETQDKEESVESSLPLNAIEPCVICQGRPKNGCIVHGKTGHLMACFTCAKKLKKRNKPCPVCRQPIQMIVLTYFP

On to `C#CC(=O)Nc1cc(OCCCC(C)=O)c2c(c1)C(=O)c1cccc(OCCCC(C)=O)c1C2=O`, for which, in test [1], the IC50 was 190 nM. On to `CC(=O)CCCOc1cccc2c1C(=O)c1c(OCCCC(C)=O)cc(NC(C)=O)cc1C2=O`, for which, in test [1], the IC50 was greater than 100000 nM. In the case of `CC(=O)CCCOc1cccc2c1C(=O)c1c(OCCCC(C)=O)cc(NC(=O)CCl)cc1C2=O`, the Activity result was “Dose-Dependent Effect” in test [2], “Dose-Dependent Effect” in test [3], “Tde” in test [4] and “Tde” in test [5]. The IC50 in test [1] worked out at 430 nM.

Take `CC(=O)CCCOc1cc(NC(=O)CCl)cc2c1C(=O)c1c(O)cccc1C2=O`: the IC50 in test [1] is 840 nM.

With `C=CS(=O)(=O)Nc1cc(OCCCC(C)=O)c2c(c1)C(=O)c1cccc(OCCCC(C)=O)c1C2=O`, the IC50 in test [1] turned out to be 3450 nM. With `C=CC(=O)Nc1cc(OCCCC(C)=O)c2c(c1)C(=O)c1cccc(OCCCC(C)=O)c1C2=O`, the IC50 in test [1] was found to be 6210 nM. On to `CC(=O)CCCCOc1cccc2c1C(=O)c1c(OCCCCC(C)=O)cc(NC(=O)CCl)cc1C2=O`, for which the IC50 in test [1] was found to be 790 nM. Consider `CC(=O)CCOc1cccc2c1C(=O)c1c(OCCC(C)=O)cc(NC(=O)CCl)cc1C2=O`, for which, in test [1], the IC50 was determined as 450 nM. The same measure, in the same setting: then `O=C(CCl)Nc1cc(OCCO)c2c(c1)C(=O)c1cccc(OCCO)c1C2=O`, with 740 nM.
